Experimental data published in patent US9174968B2, “Pyrimidinone compounds for use in the treatment of diseases or conditions mediated by LP-PLA2” (GLAXO GROUP LIMITED, priority 2010, dated 2015).
Structures can show the parent of a compound that is named as a salt.

target: T1, Lp-PLA2 from plasma (pooled human plasma) (Homo sapiens, UniProt Q13093); assay: Lp-PLA2 human plasma assay (Thio-PAF assay); type: biochemical; details: read-out: pIC50 in the thio-PAF assay (converted)
T1 construct: from tissue; host or cells: pooled human plasma
T1 sequence (Q13093 22-441): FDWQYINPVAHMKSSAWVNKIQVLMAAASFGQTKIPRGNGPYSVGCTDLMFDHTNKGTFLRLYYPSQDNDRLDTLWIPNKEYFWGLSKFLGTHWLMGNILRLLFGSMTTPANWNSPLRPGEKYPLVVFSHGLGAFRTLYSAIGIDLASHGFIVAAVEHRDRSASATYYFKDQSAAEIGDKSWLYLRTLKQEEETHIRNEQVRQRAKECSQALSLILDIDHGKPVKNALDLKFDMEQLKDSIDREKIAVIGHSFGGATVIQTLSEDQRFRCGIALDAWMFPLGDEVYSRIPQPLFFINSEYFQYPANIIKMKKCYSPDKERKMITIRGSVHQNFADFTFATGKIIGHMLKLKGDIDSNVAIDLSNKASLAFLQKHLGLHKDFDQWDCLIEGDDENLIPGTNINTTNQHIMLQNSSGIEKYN
Excerpt: (3) Lipoprotein-Associated Phospholipase A2 (Lp-PLA2) Human Plasma Assay (Also Referred to as “Thio-PAF Assay”)
The human plasma assay utilizes a thioester analog of PAF (phosphatidylcholine), where hydrolysis yields to the formation of a phospholipid containing a free thiol group. The amount of thiol is quantitated continuously by reacting with CPM (7-diethylamino-3-(4′-maleimidylphenyl)-4-methylcoumarin), a maleimide which increases in fluorescence after Michael addition of thiols. This assay may detect the activity of Lp-PLA2 from plasma, as determined by specific inhibition by Lp-PLA2 inhibitors.
The thio-PAF assay was run as a quenched 15 μL assay. Compounds source plate was prepared by making 1:3 (by volume) serial dilution of the compounds into pure DMSO on 384-well microplate. 0.01 μL of compounds on compound source plate were transferred to 384 well Greiner 784076 (black) low-volume plates by ECHO liquid dispenser. 8 μL pooled human plasma, which was previously aliquoted and frozen, was added. Plates were centrifuged for 10 sec at 500 rpm. After 30 minutes preincubation, 2 μL of substrate (2.5 mM thio-PAF, 3.2 mM NEM (N-ethylmaleimide) [made fresh daily in DMSO], and 32 μM CPM [from a DMSO stock] in assay buffer of 50 mM HEPES, pH7.4, 150 mM NaCl, 1 mM CHAPS was added to 384 well Greiner 784076 (black) low-volume plates by BRAVO liquid handling station. Plates were centrifuged for 10 sec at 500 rpm. Plate was covered to protect from light and incubated for 2 min at room temperature. Reaction was quenched with 5 μL of 5% aqueous trifluoroacetic acid (TFA). Plates were covered to protect from light and incubated for 40 min at room temperature. Plates were read at ex: 380/em: 485 using-Envision microplate reader. PIC50 data, curve and QC analysis was conducted by using XLFit module in Excel.
All exemplified compounds of the present invention were tested in thio-PAF assay or similar assay as described above.

| SMILES | IC50 |
| --- | --- |
| O=c1nc(OCCc2ccc(Oc3ccc(Cl)c(C(F)(F)F)c3)cc2)[nH]cc1Cc1c(O)cc(F)cc1F [E19, 2-{[2-(4-{[4-Chloro-3-(trifluoromethyl)phenyl]oxy}phenyl)ethyl]oxy}-5-[(2,4-difluoro-6-hydroxyphenyl)methyl]-4(1H)-pyrimidinone] | > 10 µM |
| CCc1c[nH]c(OCCc2ccc(Oc3ccc(Cl)c(C(F)(F)F)c3)cc2)nc1=O [E27, 2-{[2-(4-{[4-Chloro-3-(trifluoromethyl)phenyl]oxy}phenyl)ethyl]oxy}-5-ethyl-4(1H)-pyrimidinone] | > 10 µM |
| O=c1nc(CCc2ccc(Oc3ccc(F)cc3)cc2)[nH]cc1Cc1cncnc1 [E39, 2-(4-(4-fluorophenoxy)phenethyl)-5-(pyrimidin-5-ylmethyl)pyrimidin-4(1H)-one] | > 10 µM |
| Cn1cc(Cc2c[nH]c(CCc3ccc(Oc4cccc(C(F)(F)F)c4)cc3)nc2=O)cn1 [E50, 5-((1-methyl-1H-pyrazol-4-yl)methyl)-2-(4-(3-(trifluoromethyl)phenoxy)phenethyl)pyrimidin-4(1H)-one] | > 10 µM |
| COc1ncc(Cc2c[nH]c(SCc3ccc(Oc4ccc(F)cc4)cc3)nc2=O)cn1 [E52, 2-((4-(4-fluorophenoxy)benzyl)thio)-5-((2-methoxypyrimidin-5-yl)methyl)pyrimidin-4(1H)-one] | > 10 µM |
| N#Cc1ccc(Cc2c[nH]c(SCc3ccc(Oc4ccc(Cl)c(C(F)(F)F)c4)cc3)nc2=O)cc1 [E62, 4-[(2-{[(4-{[4-chloro-3-(trifluoromethyl)phenyl]oxy}phenyl)methyl]thio}-4-oxo-1,4-dihydro-5-pyrimidinyl)methyl]benzonitrile] | > 10 µM |
| CCc1c[nH]c(SCc2ccc(Oc3ccc(Cl)c(C(F)(F)F)c3)cc2)nc1=O [E63, 2-{[(4-{[4-chloro-3-(trifluoromethyl)phenyl]oxy}phenyl)methyl]thio}-5-ethyl-4(1H)-pyrimidinone] | > 10 µM |
| Cn1cc(Cc2c[nH]c(SCc3ccc(Oc4ccc(Cl)c(C(F)(F)F)c4)c(C#N)c3)nc2=O)c2ccccc21 [E81, 2-(4-chloro-3-(trifluoromethyl)phenoxy)-5-(((5-((1-methyl-1H-indol-3-yl)methyl)-4-oxo-1,4-dihydropyrimidin-2-yl)thio)methyl)benzonitrile] | > 10 µM |
| CCc1c[nH]c(SCc2ccc(Oc3ccc(Cl)c(C(F)(F)F)c3)c(C#N)c2)nc1=O [E83, 2-{[4-chloro-3-(trifluoromethyl)phenyl]oxy}-5-{[(5-ethyl-4-oxo-1,4-dihydro-2-pyrimidinyl)thio]methyl}benzonitrile] | > 10 µM |
| COc1ncc(Cc2c[nH]c(SCc3ccc(Oc4ccc(F)c(C(F)(F)F)c4)c(C#N)c3)nc2=O)cn1 [E89, 2-{[4-fluoro-3-(trifluoromethyl)phenyl]oxy}-5-{[(5-{[2-(methyloxy)-5-pyrimidinyl]methyl}-4-oxo-1,4-dihydro-2-pyrimidinyl)thio]methyl}benzonitrile] | > 10 µM |
| CCc1c[nH]c(SCc2ccc(Oc3cccc(C(F)(F)F)c3)c(C#N)c2)nc1=O [E98, 5-{[(5-ethyl-4-oxo-1,4-dihydro-2-pyrimidinyl)thio]methyl}-2-{[3-(trifluoromethyl)phenyl]oxy}benzonitrile] | > 10 µM |
| N#Cc1ccc(Cc2c[nH]c(SCCc3ccc(Oc4ccc(Cl)c(C(F)(F)F)c4)cc3)nc2=O)cc1 [E114, 4-[(2-{[2-(4-{[4-chloro-3-(trifluoromethyl)phenyl]oxy}phenyl)ethyl]thio}-4-oxo-1,4-dihydro-5-pyrimidinyl)methyl]benzonitrile] | > 10 µM |
| CCc1c[nH]c(OCCc2cc(F)c(Oc3ccc(Cl)c(C(F)(F)F)c3)c(F)c2)nc1=O [E125, 2-{[2-(4-{[4-chloro-3-(trifluoromethyl)phenyl]oxy}-3,5-difluorophenyl)ethyl]oxy}-5-ethyl-4(1H)-pyrimidinone] | > 10 µM |
| O=C(O)Cc1c[nH]c(OCCc2ccc(Oc3ccc(Cl)c(C(F)(F)F)c3)cc2)nc1=O [E131, (2-{[2-(4-{[4-chloro-3-(trifluoromethyl)phenyl]oxy}phenyl)ethyl]oxy}-4-oxo-1,4-dihydro-5-pyrimidinyl)acetic acid] | > 10 µM |
| CCc1c[nH]c(OCCc2ccc(Oc3ccc(C(F)(F)F)nc3)cc2)nc1=O [E140, 5-ethyl-2-{[2-(4-{[6-(trifluoromethyl)-3-pyridinyl]oxy}phenyl)ethyl]oxy}-4(1H)-pyrimidinone] | > 10 µM |
| CCc1cn(C)c(OCCc2ccc(Oc3ccc(C(F)(F)F)nc3)cc2)nc1=O [E142, 5-ethyl-1-methyl-2-{[2-(4-{[6-(trifluoromethyl)-3-pyridinyl]oxy}phenyl)ethyl]oxy}-4(1H)-pyrimidinone] | > 10 µM |
| CCc1cn(C)c(OCCc2ccc(Oc3cnc(C(F)(F)F)nc3)cc2)nc1=O [E144, 5-ethyl-1-methyl-2-(4-((2-(trifluoromethyl)pyrimidin-5-yl)oxy)phenethoxy)pyrimidin-4(1H)-one, trifluoroacetic acid salt] | > 10 µM |
| COc1ncc(Cc2c[nH]c(OCCc3ccc(Oc4ncc(Cl)cn4)cc3)nc2=O)cn1 [E145, 2-(4-((5-chloropyrimidin-2-yl)oxy)phenethoxy)-5-((2-methoxypyrimidin-5-yl)methyl)pyrimidin-4(1H)-one, Trifluoroacetic acid salt] | > 10 µM |
| Cc1cccc(Oc2ccc(CCOc3nc(=O)c(Cc4cnn(C)c4)c[nH]3)cc2)n1 [E158, 5-[(1-methyl-1H-pyrazol-4-yl)methyl]-2-[(2-{4-[(6-methyl-2-pyridinyl)oxy]phenyl}ethyl)oxy]-4(1H)-pyrimidinone] | > 10 µM |
| CCc1c[nH]c(OCCc2ccc(Oc3cccc(C)n3)cc2)nc1=O [E160, 5-ethyl-2-[(2-{4-[(6-methyl-2-pyridinyl)oxy]phenyl}ethyl)oxy]-4(1H)-pyrimidinone] | > 10 µM |
| CCc1c[nH]c(OCCc2ccc(Oc3cc(Cl)cc(C(F)(F)F)c3)cc2)nc1=O [E163, 2-{[2-(4-{[3-chloro-5-(trifluoromethyl)phenyl]oxy}phenyl)ethyl]oxy}-5-ethyl-4(1H)-pyrimidinone] | > 10 µM |
| CCc1c[nH]c(OCCc2cc(F)c(Oc3cnc(C(F)(F)F)nc3)c(F)c2)nc1=O [E170, 2-(3,5-difluoro-4-((2-(trifluoromethyl)pyrimidin-5-yl)oxy)phenethoxy)-5-ethylpyrimidin-4(1H)-one] | > 10 µM |
| CCc1cn(C)c(OCCc2cc(F)c(Oc3cnc(C(F)(F)F)nc3)c(F)c2)nc1=O [E171, 2-(3,5-difluoro-4-((2-(trifluoromethyl)pyrimidin-5-yl)oxy)phenethoxy)-5-ethyl-1-methylpyrimidin-4(1H)-one] | > 10 µM |
| CCc1c[nH]c(OCCc2ccc(Oc3ccc(Cl)c(C(F)(F)F)c3)c(F)c2)nc1=O [E173, 2-{[2-(4-{[4-chloro-3-(trifluoromethyl)phenyl]oxy}-3-fluorophenyl)ethyl]oxy}-5-ethyl-4(1H)-pyrimidinone] | > 10 µM |
| CCc1c[nH]c(OCCc2ccc(Oc3ccc(Cl)c(OC(F)(F)F)c3)cc2)nc1=O [E179] | > 10 µM |
| CCc1c[nH]c(OCCc2ccc(Oc3ccc(Cl)c(C)c3)cc2)nc1=O [E183, 2-[(2-{4-[(4-chloro-3-methylphenyl)oxy]phenyl}ethyl)oxy]-5-ethyl-4(1H)-pyrimidinone] | > 10 µM |
| CCc1cn(C)c(OCCc2ccc(Oc3ccc(Cl)c(C)c3)cc2)nc1=O [E184, 2-[(2-{4-[(4-chloro-3-methylphenyl)oxy]phenyl}ethyl)oxy]-5-ethyl-1-methyl-4(1H)-pyrimidinone] | > 10 µM |
| CN(CCc1ccc(Oc2ccc(F)cc2)cc1)c1nc(=O)c(Cc2cncnc2)c[nH]1 [E192, 2-{2-[4-(4-fluoro-phenoxy)phenyl]-ethyl-methyl-amino}-5-pyrimidin-5-ylmethyl-1H-pyrimidin-4-one] | > 10 µM |
| Cc1c[nH]c(NCCc2ccc(Oc3ccc(Cl)c(C(F)(F)F)c3)cc2)nc1=O [E198, 2-{2-[4-(4-Chloro-3-trifluoromethyl-phenoxy)-phenyl]-ethylamino}-5-methyl-1H-pyrimidin-4-one] | > 10 µM |
| O=c1nc(NCCc2ccc(Oc3ccc(Cl)c(C(F)(F)F)c3)cc2)[nH]cc1CN1CCCC1 [E215, 2-{2-[4-(4-chloro-3-trifluoromethyl-phenoxy)-phenyl]-ethylamino}-5-pyrrolidin-1-ylmethyl-1H-pyrimidin-4-one] | > 10 µM |
